Measurements reported in patent US9884063B2, “Amido-substituted azole compounds” (Bayer Pharma Aktiengesellschaft, priority 2014, dated 2018).
Where a name gives a salt, the structure may show the parent alone. Each block holds one molecule with its values, some of them ahead of it.

Columns and labels:
TNKS1 = target: T1, TNKS1 (Homo sapiens, UniProt O95271); assay: Modified TNKS1 Assay 3 (BPS kit #80573, biotin-NAD+, 96 well); assay type: biochemical; settings: human TNKS1, BPS kit #80573, 96 well
T1 sequence (O95271 1-1327): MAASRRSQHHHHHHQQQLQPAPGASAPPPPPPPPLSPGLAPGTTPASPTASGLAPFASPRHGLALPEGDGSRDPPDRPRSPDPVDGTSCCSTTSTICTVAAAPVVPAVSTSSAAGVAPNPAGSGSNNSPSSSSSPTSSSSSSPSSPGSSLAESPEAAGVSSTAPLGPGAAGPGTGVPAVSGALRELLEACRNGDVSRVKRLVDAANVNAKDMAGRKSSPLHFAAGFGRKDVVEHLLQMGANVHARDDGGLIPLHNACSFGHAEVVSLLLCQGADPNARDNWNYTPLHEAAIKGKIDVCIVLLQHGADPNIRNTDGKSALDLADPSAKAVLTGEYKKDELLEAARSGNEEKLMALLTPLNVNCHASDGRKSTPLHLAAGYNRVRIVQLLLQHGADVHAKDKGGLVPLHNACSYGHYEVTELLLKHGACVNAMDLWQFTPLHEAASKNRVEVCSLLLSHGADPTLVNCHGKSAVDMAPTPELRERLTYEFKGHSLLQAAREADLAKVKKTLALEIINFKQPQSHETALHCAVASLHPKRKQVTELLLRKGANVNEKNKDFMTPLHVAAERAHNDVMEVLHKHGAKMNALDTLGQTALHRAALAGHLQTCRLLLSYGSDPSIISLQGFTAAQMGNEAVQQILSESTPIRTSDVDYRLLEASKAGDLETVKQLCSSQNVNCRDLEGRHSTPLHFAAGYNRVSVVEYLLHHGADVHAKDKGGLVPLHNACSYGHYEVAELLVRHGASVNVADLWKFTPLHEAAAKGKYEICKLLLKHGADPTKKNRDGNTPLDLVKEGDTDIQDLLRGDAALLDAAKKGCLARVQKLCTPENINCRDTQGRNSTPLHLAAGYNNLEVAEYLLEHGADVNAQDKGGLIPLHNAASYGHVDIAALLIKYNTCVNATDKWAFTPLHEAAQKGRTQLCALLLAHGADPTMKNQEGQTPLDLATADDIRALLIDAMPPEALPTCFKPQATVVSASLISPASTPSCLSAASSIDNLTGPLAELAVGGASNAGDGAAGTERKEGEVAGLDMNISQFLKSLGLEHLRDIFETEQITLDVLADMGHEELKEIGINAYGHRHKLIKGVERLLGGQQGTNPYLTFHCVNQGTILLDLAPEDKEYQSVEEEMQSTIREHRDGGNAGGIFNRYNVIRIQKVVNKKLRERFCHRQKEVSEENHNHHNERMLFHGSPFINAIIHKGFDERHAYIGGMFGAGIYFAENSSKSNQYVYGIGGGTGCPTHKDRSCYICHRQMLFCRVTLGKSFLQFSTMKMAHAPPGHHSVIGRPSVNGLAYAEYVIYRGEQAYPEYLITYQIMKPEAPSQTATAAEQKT
In short: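 Chemiluminescent assay of TNKS1-catalysed ribosylation of a protein substrate with biotin-labelled NAD+, detected via streptavidin-HRP; run per kit protocol. Inhibition lowers the signal, and IC50 is the compound concentration halving the normalised readout.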

[1] = tested on: wildtype Wnt signaling cascade; assay: HEK293 TOP Assay (Super TopFlash luciferase reporter, Wnt-3a stimulated); assay type: cell-based; settings: Homo sapiens, HEK293 TOP reporter cell line, Wnt-3a at EC50, 16 hours incubation, compound dilution series 50 μM to 15 nM
In short: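 HEK293 cells stably carrying Super TopFlash (TOP) or FOP reporter, stimulated with recombinant human Wnt-3a (2500–5 ng/ml, two-fold steps). Both lines incubated in parallel with compound from 50 μM to 15 nM (3.16-fold) in CAFTY buffer pH 7.4 with 2 mM Ca2+ and 0.01% BSA; selectivity judged TOP vs FOP.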

IC50 (TNKS1): 260 nM
IC50 ([1]; HEK293, 16 h): 1250 nM
Structure (SMILES): O=C(Nc1ccc(NC(=O)c2nc[nH]c2C(=O)NCCN2CCC(F)(F)CC2)cc1)c1ccc(F)cc1Cl [Example 224, N^4-{4-[(2-chloro-4-fluorobenzoyl)amino]phenyl}-N^5-[2-(4,4-difluoropiperidin-1-yl)ethyl]-1H-imidazole-4,5-dicarboxamide]

IC50 (TNKS1): 180 nM
IC50 ([1]; HEK293, 16 h): 800 nM
Structure (SMILES): O=C(Nc1ccc(NC(=O)c2nc[nH]c2C(=O)NCCN2CCCC(F)(F)C2)cc1)c1ccc(F)cc1Cl [Example 225, N^4-{4-[(2-chloro-4-fluorobenzoyl)amino]phenyl}-N^5-[2-(3,3-difluoropiperidin-1-yl)ethyl]-1H-imidazole-4,5-dicarboxamide]

IC50 (TNKS1): 200 nM
IC50 ([1]; HEK293, 16 h): 120 nM
Structure (SMILES): O=C(Nc1ccc(NC(=O)c2nc[nH]c2C(=O)NCCN2CCOCC2)cc1)c1ccc(F)cc1Cl [Example 227, N^4-{4-[(2-chloro-4-fluorobenzoyl)amino]phenyl}-N^5-[2-(morpholin-4-yl)ethyl]-1H-imidazole-4,5-dicarboxamide]

IC50 (TNKS1): 20 nM
IC50 ([1]; HEK293, 16 h): 30 nM
Structure (SMILES): O=C(Nc1ccc(NC(=O)c2nc[nH]c2C(=O)NCCN2CCCC2)cc1)c1ccc(F)cc1Cl [Example 228, N^4-{4-[(2-chloro-4-fluorobenzoyl)amino]phenyl}-N^5-[2-(pyrrolidin-1-yl)ethyl]-1H-imidazole-4,5-dicarboxamide]

IC50 (TNKS1): 90 nM
IC50 ([1]; HEK293, 16 h): 200 nM
Structure (SMILES): O=C(Nc1ccc(NC(=O)c2nc[nH]c2C(=O)NCCN2CCC(F)CC2)cc1)c1ccc(F)cc1Cl [Example 230, N^4-{4-[(2-chloro-4-fluorobenzoyl)amino]phenyl}-N^5-[2-(4-fluoropiperidin-1-yl)ethyl]-1H-imidazole-4,5-dicarboxamide]

IC50 (TNKS1): 170 nM
IC50 ([1]; HEK293, 16 h): 70 nM
Structure (SMILES): O=C(Nc1ccc(NC(=O)c2nc[nH]c2C(=O)NCCN2CC[C@@H](F)C2)cc1)c1ccc(F)cc1Cl [Example 231, N^4-{4-[(2-chloro-4-fluorobenzoyl)amino]phenyl}-N^5-{2-[(3R)-3-fluoropyrrolidin-1-yl]ethyl}-1H-imidazole-4,5-dicarboxamide]

IC50 (TNKS1): 290 nM
IC50 ([1]; HEK293, 16 h): 220 nM
Structure (SMILES): O=C(Nc1ccc(NC(=O)c2nc[nH]c2C(=O)NCCN2CC[C@H](F)C2)cc1)c1ccc(F)cc1Cl [Example 232, N^4-{4-[(2-chloro-4-fluorobenzoyl)amino]phenyl}-N^5-{2-[(3S)-3-fluoropyrrolidin-1-yl]ethyl}-1H-imidazole-4,5-dicarboxamide]

IC50 (TNKS1): 6 nM
IC50 ([1]; HEK293, 16 h): 30 nM
Structure (SMILES): O=C(Nc1ccc(NC(=O)c2nc[nH]c2C(=O)NCCN2CCC[C@H](O)C2)cc1)c1ccc(F)cc1Cl [Example 271, N^4-{4-[(2-chloro-4-fluorobenzoyl)amino]phenyl}-N^5-{2-[(3S)-3-hydroxypiperidin-1-yl]ethyl}-1H-imidazole-4,5-dicarboxamide]

IC50 (TNKS1): 10 nM
IC50 ([1]; HEK293, 16 h): 290 nM
Structure (SMILES): O=C(Nc1ccc(NC(=O)c2nc[nH]c2C(=O)NCCCN2CCCC2)cc1)c1ccc(F)cc1Cl [Example 274, N^4-{4-[(2-chloro-4-fluorobenzoyl)amino]phenyl}-N^5-[3-(pyrrolidin-1-yl)propyl]-1H-imidazole-4,5-dicarboxamide]

IC50 (TNKS1): 70 nM
IC50 ([1]; HEK293, 16 h): 120 nM
Structure (SMILES): O=C(Nc1ccc(NC(=O)c2nc[nH]c2C(=O)NCCN2CCC[C@@H](F)C2)cc1)c1ccc(F)cc1Cl [Example 277, N^4-{4-[(2-chloro-4-fluorobenzoyl)amino]phenyl}-N^5-{2-[(3R)-3-fluoropiperidin-1-yl]ethyl}-1H-imidazole-4,5-dicarboxamide]

Second part, the molecule before the results:

Structure (SMILES): O=C(Nc1ccc(NC(=O)c2ocnc2C(=O)NCCN2CC[C@H](F)C2)cc1)c1ccc(F)cc1Cl [Example 221, N^5-{4-[(2-chloro-4-fluorobenzoyl)amino]phenyl}-N^4-{2-[(3S)-3-fluoropyrrolidin-1-yl]ethyl}-1,3-oxazole-4,5-dicarboxamide]
IC50 (TNKS1): > 500 nM
IC50 ([1]; HEK293, 16 h): 820 nM

Structure (SMILES): O=C(Nc1ccc(NC(=O)c2ocnc2C(=O)NCCN2CC[C@@H](F)C2)cc1)c1ccc(F)cc1Cl [Example 222, N^5-{4-[(2-chloro-4-fluorobenzoyl)amino]phenyl}-N^4-{2-[(3R)-3-fluoropyrrolidin-1-yl]ethyl}-1,3-oxazole-4,5-dicarboxamide]
IC50 (TNKS1): 220 nM
IC50 ([1]; HEK293, 16 h): 670 nM

Structure (SMILES): CC(C)(O)CNC(=O)c1[nH]cnc1C(=O)Nc1ccc(NC(=O)c2ccc(F)cc2Cl)cc1 [Example 223, N^4-{4-[(2-chloro-4-fluorobenzoyl)amino]phenyl}-N^5-(2-hydroxy-2-methylpropyl)-1H-imidazole-4,5-dicarboxamide]
IC50 (TNKS1): > 500 nM
IC50 ([1]; HEK293, 16 h): 330 nM

Structure (SMILES): O=C(Nc1ccc(NC(=O)c2nc[nH]c2C(=O)NCC2CCOCC2)cc1)c1ccc(F)cc1Cl [Example 233, N^4-{4-[(2-chloro-4-fluorobenzoyl)amino]phenyl}-N^5-(tetrahydro-2H-pyran-4-ylmethyl)-1H-imidazole-4,5-dicarboxamide]
IC50 (TNKS1): 480 nM
IC50 ([1]; HEK293, 16 h): 450 nM

Structure (SMILES): O=C(Nc1ccc(NC(=O)c2nc[nH]c2C(=O)NC2CCOCC2)cc1)c1ccc(F)cc1Cl [Example 234, N^4-{4-[(2-chloro-4-fluorobenzoyl)amino]phenyl}-N^5-(tetrahydro-2H-pyran-4-yl)-1H-imidazole-4,5-dicarboxamide]
IC50 (TNKS1): 220 nM
IC50 ([1]; HEK293, 16 h): 460 nM

Structure (SMILES): O=C(Nc1ccc(NC(=O)c2nc[nH]c2C(=O)NCC2CCOC2)cc1)c1ccc(F)cc1Cl (centres unmarked) [Example 235, N^4-{4-[(2-chloro-4-fluorobenzoyl)amino]phenyl}-N^5-(tetrahydrofuran-3-ylmethyl)-1H-imidazole-4,5-dicarboxamide]
IC50 (TNKS1): 270 nM
IC50 ([1]; HEK293, 16 h): 240 nM

Structure (SMILES): O=C(Nc1ccc(NC(=O)c2nc[nH]c2C(=O)NCC2CCCO2)cc1)c1ccc(F)cc1Cl (centres unmarked) [Example 237, N^4-{4-[(2-chloro-4-fluorobenzoyl)amino]phenyl}-N^5-(tetrahydrofuran-2-ylmethyl)-1H-imidazole-4,5-dicarboxamide]
IC50 (TNKS1): > 500 nM
IC50 ([1]; HEK293, 16 h): 430 nM

Structure (SMILES): CNC(=O)c1nc[nH]c1C(=O)Nc1ccc(NC(=O)c2ccc(OC)cc2Cl)cc1 [Example 246, N^5-{4-[(2-chloro-4-methoxybenzoyl)amino]phenyl}-N^4-methyl-1H-imidazole-4,5-dicarboxamide]
IC50 (TNKS1): > 500 nM
IC50 ([1]; HEK293, 16 h): 200 nM

Structure (SMILES): C[C@H]1CCCCN1CCNC(=O)c1[nH]cnc1C(=O)Nc1ccc(NC(=O)c2ccc(F)cc2Cl)cc1 [Example 266, N^4-{4-[(2-chloro-4-fluorobenzoyl)amino]phenyl}-N^5-{2-[(25)-2-methylpiperidin-1-yl]ethyl}-1H-imidazole-4,5-dicarboxamide formic acid salt]
IC50 (TNKS1): 20 nM
IC50 ([1]; HEK293, 16 h): 30 nM

Structure (SMILES): CC(CN1CCOCC1)NC(=O)c1[nH]cnc1C(=O)Nc1ccc(NC(=O)c2ccc(F)cc2Cl)cc1 (centres unmarked) [Example 268, N^4-{4-[(2-chloro-4-fluorobenzoyl)amino]phenyl}-N^5-[1-(morpholin-4-yl)propan-2-yl]-1H-imidazole-4,5-dicarboxamide]
IC50 (TNKS1): 110 nM
IC50 ([1]; HEK293, 16 h): 60 nM

Structure (SMILES): CC(C)(N)CNC(=O)c1[nH]cnc1C(=O)Nc1ccc(NC(=O)c2ccc(F)cc2Cl)cc1 [Example 280, N^5-(2-amino-2-methylpropyl)-N^4-{4-[(2-chloro-4-fluorobenzoyl)amino]phenyl}-1H-imidazole-4,5-dicarboxamide]
IC50 (TNKS1): 60 nM
IC50 ([1]; HEK293, 16 h): 1050 nM

Structure (SMILES): O=C(Nc1ccc(NC(=O)c2nc[nH]c2C(=O)N[C@@H]2CCNC2)cc1)c1ccc(F)cc1Cl [Example 282, N^4-{4-[(2-chloro-4-fluorobenzoyl)amino]phenyl}-N^5-[(3R)-pyrrolidin-3-yl]-1H-imidazole-4,5-dicarboxamide hydrochloride salt]
IC50 (TNKS1): 60 nM
IC50 [1]: 970 nM
